Peptide text beside a SMILES is read from it.
Experiments:
[1] = tested on: c-Myc promoter (Del-4) Firefly luciferase reporter in HEK293 cells; test: Dual-luciferase reporter assay, c-Myc promoter; type: cell-based, human; conditions: HEK293, 4 h, 1, 5 or 10 µM peptide with Nanocin Pro; Firefly/Renilla normalised to 0.2% DMSO; P < 0.001
Experimental: Cell studies: HEK293 cells (ATCC CRL-1573™, passages 20–28), MCF-7 cells (ATCC HTB-22™, passages 21–28), and Panc-1 cells (ATCC CRL-1469™, passages 15–22) were cultured in Dulbecco's Modified Eagle's Medium (DMEM) medium supplemented with 10% fetal bovine serum (FBS; Gibco, UK) and maintained under standard cell culture conditions (37°C, 5% CO2). Cells were passaged every 3–4 days at ∼80% confluency. For experiments, the cells were seeded into six-well plates at a density of 1 × 10⁵ cells/well in DMEM containing 10% FBS. […] Cell proliferation was assessed at 4 and 24 h post-treatment using the CellTiter 96® Aqueous One Solution Cell Proliferation Assay (Promega, USA). For this, 20 µl of reagent was added per well, and absorbance at 490 nm was measured after 4 and 24 h using a SpectraMax iD3 plate reader (Molecular Devices, UK). Blank values (media without cells) were subtracted, and readings were normalized to DMSO-treated controls. […] Statistical significance was determined using one-way ANOVA followed by Holm–Šídák post-hoc analysis performed in GraphPad Prism version 10.1.2. […]

c-MycC27 = test: CD melting of c-MycC27; type: binding; conditions: 10 µM DNA; for TM c-MycC27, first (lower) transition / TM c-MycC27, second (higher) transition: 10 mM NaCaco pH 6.6, 10 molar eqv. peptide, mean ± SEM (n=4); for effect on c-MycC27 thermal stability, in words: pH 6.6, 10 molar equivalents peptide
Experimental: Circular Dichroism (CD) melting experiments were performed in a Jasco J-1500 spectropolarimeter with 10 µM DNA samples in 10 mM sodium cacodylate buffer at pH 6.6 using a 1 mm path length quartz cuvette. […] The samples were kept at 5°C for 5 min before starting the melt, with a temperature increase of 1°C/min, a 0.5°C data interval, and a 60-s holding time at each target temperature. Four scans were accumulated data pitch of 0.5 nm, a scanning speed of 200 nm/min, 1 s response time, 2 nm bandwidth, and 200 mdeg sensitivity. Furthermore, two CD melting experiment repeats were performed recording C-rich c-Myc at 288 and 320 nm, G-rich c-Myc at 264 and 320 nm, and dsDNA at 253 and 320 nm with the settings as described for full spectrum measurements. Data were zero corrected to 320 nm and baseline drift. The melting temperature (TM) was concluded using the Boltzmann or biphasic fitting curve on the folded fraction data using GraphPad Prism version 10.1.2. Data were processed as mean ± SEM (n = 4) and one-way ANOVA followed by Bonferroni post-hoc test to determine significant changes between peptides and controls.

[2] = 10 mM sodium cacodylate pH 6.6, 10 molar equivalents peptide vs DMSO, mean ± SEM (n = 4), SEM

SMILES | luciferase activity (c-Myc promoter activity) vs vehicle-only control [1] | TM c-MycC27, first (lower) transition (c-MycC27; SEM) | TM c-MycC27, second (higher) transition (c-MycC27; SEM) | ΔTM c-MycC27, first value (transition at lower temperature) (c-MycC27; [2]) | effect on c-MycC27 thermal stability, in words (c-MycC27) | ΔTM c-MycC27, second value (transition at higher temperature) (c-MycC27; [2])
CC(=O)N[C@H](C(=O)N[C@@H](CO)C(=O)N[C@@H](CCC(=O)O)C(=O)N[C@@H](C)C(=O)N[C@@H](Cc1c[nH]c2ccccc12)C(=O)N[C@@H](CCCCN)C(=O)N[C@@H](CCC(=O)O)C(=O)N[C@H](C(=O)N[C@@H](CCCCN)C(=O)NCC(=O)N[C@@H](Cc1ccccc1)C(=O)N[C@@H](Cc1ccccc1)C(N)=O)C(C)C)C(C)C [Pep-VSE] (Ac-VSEAWKEVKGFF-NH2) | concentration-dependent decreases in luciferase activity | 26 ± 1.0 °C | 80 ± 0.6 °C | 0 ± 0.6 °C | neither stabilized nor destabilized | –
CC(=O)N1CCC[C@H]1C(=O)N[C@H](C(=O)N[C@@H](CC(N)=O)C(=O)N[C@H](C(=O)N[C@@H](CO)C(=O)NCC(=O)N[C@@H](CCCNC(=N)N)C(=O)N[C@@H](CC(N)=O)C(=O)N[C@@H](Cc1ccc(O)cc1)C(=O)N[C@@H](CC(C)C)C(=O)N[C@@H](Cc1ccccc1)C(=O)N[C@@H](CS)C(N)=O)C(C)C)[C@@H](C)O [Pep-PTN] (Ac-PTNVSGRNYLFC-NH2) | concentration-dependent decreases in luciferase activity | 27 ± 0.7 °C | 79 ± 0.5 °C | 0 ± 0.5; 0 ± 0.5 °C | neither stabilized nor destabilized | 0 ± 0.5; 0 ± 0.5 °C

Source: PMC12596500, “Affinity-selected peptide ligands specifically bind i-motif DNA and modulate c-Myc gene expression” (Nucleic Acids Research, 2025)
